# From PubChem BioAssay (NCI)
#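 Growth conditions: 96-well plates. Treatment: test compound, 48 hours, 5 concentrations. Analysis: linear interpolation between bracketing concentrations; unreached endpoints set to highest concentration. At the GI50, growth is halved. The concentration for full growth arrest is given as TGI.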
# Assays:
# Experiment in all cases: NCI anticancer screen, dose series, 48 h
# [1] = tested on: M14 melanoma
# [2] = tested on: SK-OV-3 ovarian
# [3] = tested on: MDA-MB-435
# [4] = tested on: LOX IMVI melanoma
# [5] = tested on: T-47D breast
# [6] = tested on: MCF7 breast
# [7] = tested on: SR leukemia
# [8] = tested on: RXF 393 renal
# [9] = tested on: OVCAR-3 ovarian
# [10] = tested on: UO-31 renal
# [11] = tested on: HL-60(TB) leukemia
# [12] = tested on: SN12C renal
# [13] = tested on: SK-MEL-5 melanoma
# [14] = tested on: BT-549 breast
# [15] = tested on: A549 NSCLC
# [16] = tested on: HCC-2998 colon
# [17] = tested on: COLO 205 colon
# [18] = tested on: OVCAR-4 ovarian
# [19] = tested on: 786-0 renal
# [20] = tested on: SF-268 CNS
# [21] = tested on: K-562 leukemia
# [22] = tested on: HOP-92 NSCLC
# [23] = tested on: TK-10 renal
# [24] = tested on: KM12 colon
# [25] = tested on: HCT-15 colon
# [26] = tested on: HT29 colon
# [27] = tested on: CCRF-CEM leukemia
# [28] = tested on: NCI-H460 lung
# [29] = tested on: SK-MEL-28 melanoma
# [30] = tested on: SNB-75 CNS
# [31] = tested on: HCT-116 colon
# [32] = tested on: UACC-257 melanoma
# [33] = tested on: ACHN renal
# [34] = tested on: RPMI-8226 leukemia
# [35] = tested on: SW-620 colon
# [36] = tested on: NCI-H226 lung
# [37] = tested on: MALME-3M melanoma
# [38] = tested on: PC-3 prostate
# [39] = tested on: NCI/ADR-RES ovarian
# [40] = tested on: HS 578T breast
# [41] = tested on: MOLT-4 leukemia
# [42] = tested on: DU-145 prostate
# [43] = tested on: EKVX NSCLC
# [44] = tested on: OVCAR-8 ovarian
# [45] = tested on: MDA-MB-468 breast
# [46] = tested on: IGROV1 ovarian
# [47] = tested on: SK-MEL-2 melanoma
# [48] = tested on: NCI-H522 lung
# [49] = tested on: A498 renal
# [50] = tested on: OVCAR-5 ovarian
# [51] = tested on: HOP-62 NSCLC
# [52] = tested on: UACC-62 melanoma
# [53] = tested on: NCI-H23 lung
# [54] = tested on: CAKI-1 renal
# [55] = tested on: SNB-19 CNS
# [56] = tested on: U251 CNS
# [57] = tested on: SF-539 CNS
# [58] = tested on: SF-295 CNS
# [59] = tested on: MDA-MB-231 breast
compound,measurement,setting,value
COc1sc(/C=N/NC(=O)c2[nH]c3ccc(Br)cc3c2-c2ccccc2)cc1Cl,GI50,[1],2120 nM
same,TGI,[1],> 100 µM
same,GI50,[2],741 nM
same,TGI,[2],22.8 µM
same,GI50,[3],346 nM
same,TGI,[3],2600 nM
same,GI50,[4],1610 nM
same,TGI,[4],40.7 µM
same,GI50,[5],6.62 µM
same,TGI,[5],> 100 µM
same,GI50,[6],447 nM
same,TGI,[6],> 100 µM
same,GI50,[7],1000 nM
same,TGI,[7],> 100 µM
same,GI50,[8],935 nM
same,TGI,[8],> 100 µM
same,GI50,[9],607 nM
same,TGI,[9],11.1 µM
same,GI50,[10],2210 nM
same,TGI,[10],> 100 µM
same,GI50,[11],1520 nM
same,TGI,[11],5.23 µM
same,GI50,[12],3.16 µM
same,TGI,[12],> 100 µM
same,GI50,[13],1730 nM
same,TGI,[13],4.36 µM
same,GI50,[14],3.72 µM
same,TGI,[14],8.48 µM
same,GI50,[15],2640 nM
same,TGI,[15],> 100 µM
same,GI50,[16],3.74 µM
same,TGI,[16],> 100 µM
same,GI50,[17],294 nM
same,TGI,[17],728 nM
same,GI50,[18],6.38 µM
same,TGI,[18],> 100 µM
same,GI50,[19],2780 nM
same,TGI,[19],41.9 µM
same,GI50,[20],2670 nM
same,TGI,[20],> 100 µM
same,GI50,[21],502 nM
same,TGI,[21],> 100 µM
same,GI50,[22],9.72 µM
same,TGI,[22],> 100 µM
same,GI50,[23],4.48 µM
same,TGI,[23],> 100 µM
same,GI50,[24],2790 nM
same,TGI,[24],> 100 µM
same,GI50,[25],2960 nM
same,TGI,[25],> 100 µM
same,GI50,[26],1070 nM
same,TGI,[26],7.46 µM
same,GI50,[27],3.09 µM
same,TGI,[27],> 100 µM
same,GI50,[28],2790 nM
same,TGI,[28],10.7 µM
same,GI50,[29],3.26 µM
same,TGI,[29],> 100 µM
same,GI50,[30],740 nM
same,TGI,[30],26.9 µM
same,GI50,[31],1740 nM
same,TGI,[31],10.1 µM
same,GI50,[32],5.78 µM
same,TGI,[32],> 100 µM
same,GI50,[33],2380 nM
same,TGI,[33],> 100 µM
same,GI50,[34],1960 nM
same,TGI,[34],> 100 µM
same,GI50,[35],2880 nM
same,TGI,[35],> 100 µM
same,GI50,[36],2120 nM
same,TGI,[36],8.3 µM
same,GI50,[37],3.98 µM
same,TGI,[37],> 100 µM
same,GI50,[38],3.06 µM
same,TGI,[38],> 100 µM
same,GI50,[39],649 nM
same,TGI,[39],4.58 µM
same,GI50,[40],1730 nM
same,TGI,[40],44.4 µM
same,GI50,[41],3.3 µM
same,TGI,[41],26.7 µM
same,GI50,[42],3.23 µM
same,TGI,[42],32.5 µM
same,GI50,[43],4.49 µM
same,TGI,[43],> 100 µM
same,GI50,[44],690 nM
same,TGI,[44],11.5 µM
same,GI50,[45],895 nM
same,TGI,[45],5.54 µM
same,GI50,[46],3.05 µM
same,TGI,[46],30.7 µM
same,GI50,[47],1540 nM
same,TGI,[47],> 100 µM
same,GI50,[48],200 nM
same,TGI,[48],566 nM
same,GI50,[49],11.1 µM
same,TGI,[49],53.7 µM
same,GI50,[50],3.28 µM
same,TGI,[50],72.9 µM
same,GI50,[51],1000 nM
same,TGI,[51],13.1 µM
same,GI50,[52],696 nM
same,TGI,[52],> 100 µM
same,GI50,[53],3.72 µM
same,TGI,[53],> 100 µM
same,GI50,[54],798 nM
same,TGI,[54],94.6 µM
same,GI50,[55],4.22 µM
same,TGI,[55],> 100 µM
same,GI50,[56],3.39 µM
same,TGI,[56],86.6 µM
same,GI50,[57],1230 nM
same,TGI,[57],4.55 µM
same,GI50,[58],1200 nM
same,TGI,[58],27.2 µM
same,GI50,[59],3.23 µM
same,TGI,[59],43.1 µM
